{
  "source": "patent US20090075941A1",
  "about": "“TREATING NEOPLASMS” (THE UAB RESEARCH FOUNDATION, priority 2006, published 2009)",
  "key": {"[1]": {"system": "unprenylated Rap1A in MDA-MB-231 breast cancer cells", "assay": "Western blot, unprenylated Rap1A (Example 2)", "format": "cell-based, human", "conditions": "MDA-MB-231 cells; 24 h", "protocol": "(§1) Western blot analysis. Cells were cultured on 6-well plates in normal culture medium until near confluency. The cells were then rinsed with sterile PBS and cultured for further 24 h in serum-tree culture medium, in the presence or absence of the indicated bisphosphonates. Some cultures were also treated with 25 μM geranylgeraniol (cold, all trans), 1.0 μg/ml LPS (Sigma; St. Louis, Mo.) 10 ng/ml IL-1β (R&D Systems; Minneapolis, Minn.) or TNF-α (R&D Systems). To study bisphosphonate effects on connexin-43 expression, the cells were cultured for 24 h in serum-free culture medium in the presence of the indicated bisphosphonates or PBS as a vehicle control. Culture medium was then discarded, the cells were quickly lysed and prepared into Western blot samples, as described in Merrell et al. (2000) Breast Cancer Res. Treat. 81, 231-241. After boiling the supernatants in reducing sodium docedyl sulfate (SDS) sample buffer, equal amounts of protein (˜20-50 μg) were loaded per lane and the samples were electrophoresed on 10% SDS polyacrylamide gel and transferred to a nitrocellulose membrane. To detect, unprenylated Rap1A, the blots were incubated overnight at 4° C. with the antibody SC-1482 (Santa Cruz Technology (San Diego, Calif.)), diluted 1:1000 in Tris-buffered saline, 0.1% (v/v) Tween-20 (TEST), and then with peroxidase-conjugated anti-goat serum (Pierce; Rockford, Ill.), diluted 1:1000 in TBST. Total Rap1 was detected from stripped blots in a similar fashion, with the antibody SC-65 (Santa Cruz Technology). The phosphorylation status of p38 was investigated using anti-phospho-p38 (Cell Signaling; Beverly, Mass.) and after stripping of the membrane, with anti-total p38 antibodies (Cell Signaling), according to the manufacturer's instructions. Expression of connexin-43 was detected with a rabbit anti-connexin-43 antibody (Zymed Laboratories, Inc.; San Francisco, Calif.), diluted 1:1000 in TBST. The protein bands were visualized by chemiluminescence using SuperSignal West Pico ECL kit (Pierce Biotechnology, Inc.; Rockford, Ill.)."}, "[2]": {"system": "unprenylated Rap1A in AB-12 mesothelioma cells", "assay": "Western blot, unprenylated Rap1A (Example 2)", "format": "cell-based, mouse", "conditions": "AB-12 cells; 24 h", "protocol": "as §1"}, "[3]": {"system": "unprenylated Rap1A in AB12 cells", "assay": "Western blot, accumulation of unprenylated Rap1A (Example 1)", "format": "cell-based, mouse", "protocol": "(§2) Western blotting. AB12 and AC29 cells were plated on 6-well plates in normal culture medium until near confluency. The cells were then rinsed with sterile PBS and cultured for further 24 h in serum-free culture medium, in the presence or absence of 2×10^−4-10^−5 M risedronate, zoledronate or PBS control, with or without 25 μM geranylgeraniol, or the same volume of ethanol as a vehicle control. Culture medium was discarded and the cells were harvested in lysis buffer (20 mM Tris pH 7.4, 150 mM NaCl, 1 mM EDTA, 1 mM EGTA, 1% Triton, 2.5 mM sodium pyrophosphate, 1 mM β-glycerolphosphate, 1 mM Na3VO4, 1 μg/ml leupeptin (Cell Signaling Technology, Inc.; Danvers, Mass.)) and clarified by centrifugation. After boiling the supernatants in reducing SDS sample buffer, equal amounts of protein (˜50 μg) were loaded per lane and the samples were electrophoresed on 10% polyacrylamide SDS gel and transferred to a nitrocellulose membrane. Unprenylated Rap1A was detected with the antibody SC-1482 and total Rap1 (both prenylated and unprenylated forms of both Rap1A and Rap1B) was detected with the antibody SC-65 (Santa Cruz Biotechnology, Inc.; Santa Cruz, Calif.), according to the manufacturer's recommendations. The phosphorylation status of p38 was studied with anti-phospho-p38 and anti-total p38 antibodies (Cell Signaling Technology, Inc.), as recommended by the manufacturer. The protein bands were visualized by chemiluminescence using SuperSignal West Pico ECL kit (Pierce; Rockford, Ill.)."}, "[4]": {"system": "unprenylated Rap1A in AC29 cells", "assay": "Western blot, accumulation of unprenylated Rap1A (Example 1)", "format": "cell-based, mouse", "protocol": "as §2"}, "[5]": {"system": "AB12 cells", "assay": "Subcutaneous mouse mesothelioma model, tumor volume", "format": "in vivo", "conditions": "AB12 s.c. in BALB/c mice; risedronate 15 mg/kg (P<0.02), zoledronate 0.5 mg/kg (P<0.003); every six days, 4 treatments from day 10", "protocol": "In vivo mesothelioma models. Female BALB/c mice, four to eight weeks of age, were obtained from the National Cancer Institute-Frederick Cancer Research Facility (Frederick, Md.) and were housed in the Pathogen-Free Rodent Shared Facility (Comprehensive Cancer Center, University of Alabama at Birmingham). All animal procedures were performed, in accordance with recommendations for the proper care and use of laboratory animals and were approved by the local IACUC. Subcutaneous (s.c.) and intraperitoneal (i.p.) mouse mesothelioma models were evaluated. In the s.c. model, 3×10^6 AB12 cells were first injected s.c. into cohorts of BALB/c mice. Treatments with i.p. BPs or vehicle were started when tumors became palpable on day 10 and continued every six days for a total of 4 treatments. Tumor size was measured bidimensionally with calipers every two to three days and tumor volume calculated by the formula (length×width^2)÷2. Mice were euthanized before tumors reached the size of 2000 mm^3. In the i.p. model, AC29 or AB12 cells (5×10^5/0.5 ml) were injected i.p, into cohorts of 10-12 BALB/c using a 26-gauge needle. Treatment was initiated 6 days after tumor inoculation and the mice were followed for survival. In the i.p. model risedronate (15 mg/kg), zoledronate (0.5 mg/kg) or PBS were administered i.p. three times a week for two weeks."}},
  "data": [
    {"smiles": "O=P(O)(O)C(O)(Cc1cccnc1)P(=O)(O)O", "note": "[risedronate]", "values": [
      {"measurement": "accumulation of unprenylated Rap1A", "setting": "[1]", "value": "dose-dependent accumulation"},
      {"measurement": "accumulation of unprenylated Rap1A", "setting": "[2]", "value": "dose-dependent accumulation"},
      {"measurement": "accumulation of unprenylated Rap1A", "setting": "[3]; 24 h, 2×10^−4-2×10^−6 M", "value": "dose-dependent accumulation"},
      {"measurement": "reversal of BP-induced accumulation of unprenylated Rap1A by geranylgeraniol", "setting": "[3]; with 25 μM geranylgeraniol", "value": "almost completely reversed"},
      {"measurement": "accumulation of unprenylated Rap1A", "setting": "[4]; 24 h, 2×10^−4-2×10^−6 M", "value": "dose-dependent accumulation"},
      {"measurement": "reversal of BP-induced accumulation of unprenylated Rap1A by geranylgeraniol", "setting": "[4]; with 25 μM geranylgeraniol", "value": "almost completely reversed"},
      {"measurement": "subcutaneous tumor growth", "setting": "[5]", "value": "inhibited subcutaneous tumor growth"}
    ]}
  ]
}
